Measured values from article PMC11855827, “High-Throughput Screening of Five Compound Libraries for Anthelmintic Activity and Toxicity Leads to the Discovery of Two Flavonoid Compounds” (International Journal of Molecular Sciences, 2025).
“And” between values parts separate entries of the source, which are not always exact repeats. Equal values may be shown once. Read-outs that look alike come from different tables or passages of the source.

Test system: C. elegans
[1] = Table S2, C. elegans SS assay, 110 μM, 0 h, averages of 4 data points
[2] = Table S2, C. elegans SS assay, 110 μM, 24 h, averages of 4 data points

C[C@@H]1O[C@@H](O[C@H]2[C@H](O)[C@@H](O)[C@H](OC[C@H]3O[C@@H](OC(=O)[C@]45CCC(C)(C)C[C@H]4C4=CC[C@@H]6[C@@]7(C)CC[C@H](O[C@@H]8OC[C@H](O)[C@H](O)[C@H]8O)[C@@](C)(CO)[C@@H]7CC[C@@]6(C)[C@]4(C)CC5)[C@H](O)[C@@H](O)[C@@H]3O)O[C@@H]2CO)[C@H](O)[C@H](O)[C@H]1O [Hederacoside D]
Percentage of motility inhibition 0 h [1]: 2% | Percentage of motility inhibition 24 h [2]: 2%

COc1ccc(-c2oc3cc(OC)c(OC)c(O)c3c(=O)c2OC)cc1OC [Artemitin]
Percentage of motility inhibition 0 h [1]: 0% | Percentage of motility inhibition 24 h [2]: 20%

C/C=C/C1=C(C(=O)O)N2C(=O)[C@@H](NC(=O)[C@H](N)c3ccc(O)cc3)[C@H]2SC1.O [Cefprozil (monohydrate)]
Percentage of motility inhibition 0 h [1]: 12% | Percentage of motility inhibition 24 h [2]: 14%

CCC1=C[C@@H]2CN(C1)Cc1c([nH]c3ccccc13)[C@@](C(=O)OC)(c1cc3c(cc1OC)N(C)[C@H]1[C@@](O)(C(=O)OC)[C@H](OC(C)=O)[C@]4(CC)C=CCN5CC[C@]31[C@@H]54)C2.O=C(O)C(O)C(O)C(=O)O.O=C(O)C(O)C(O)C(=O)O [Vinorelbine (ditartrate)]
Percentage of motility inhibition 0 h [1]: 0%

CN[C@@H]1[C@H](O[C@H]2[C@H](O[C@H]3[C@H](O)[C@@H](O)[C@H](NC(=N)N)[C@@H](O)[C@@H]3NC(=N)N)O[C@@H](C)[C@]2(O)CO)O[C@@H](CO)[C@H](O)[C@H]1O.CN[C@@H]1[C@H](O[C@H]2[C@H](O[C@H]3[C@H](O)[C@@H](O)[C@H](NC(=N)N)[C@@H](O)[C@@H]3NC(=N)N)O[C@@H](C)[C@]2(O)CO)O[C@@H](CO)[C@H](O)[C@H]1O.O=S(=O)(O)O.O=S(=O)(O)O.O=S(=O)(O)O [Dihydrostreptomycin (sulfate)]
Percentage of motility inhibition 0 h [1]: 0% | Percentage of motility inhibition 24 h [2]: 0%

CO[C@@]1(NC(=O)C(C(=O)[O-])c2ccc(O)cc2)C(=O)N2C(C(=O)[O-])=C(CSc3nnnn3C)CO[C@@H]21.[Na+].[Na+] (stereo partly drawn) [Moxalactam (sodium salt)]
Percentage of motility inhibition 0 h [1]: 22% | Percentage of motility inhibition 24 h [2]: 8%

COc1cc(C(=O)OCCCCN=C(N)N)cc(OC)c1O.Cl [Leonurine (hydrochloride)]
Percentage of motility inhibition 0 h [1]: 0% | Percentage of motility inhibition 24 h [2]: 0%

CC(C)=CCCC(C(=O)O)C1CCC2(C)C3=C(CCC12C)C1(C)CCC(=O)C(C)(C)C1CC3 (stereo not drawn) [3-Dehydrotrametenolic acid]
Percentage of motility inhibition 0 h [1]: 17% | Percentage of motility inhibition 24 h [2]: 37%

CS(=O)(=O)O.C[C@H]1NCc2cc(-c3ccc4c(=O)c(C(=O)O)cn(C5CC5)c4c3OC(F)F)ccc21.O [Garenoxacin (Mesylate hydrate)]
Percentage of motility inhibition 0 h [1]: 61% | Percentage of motility inhibition 24 h [2]: 25%

Nc1ncnc(N[C@@H]2O[C@H](CO)[C@@H](O)[C@H]2O)c1[N+](=O)[O-] [Clitocine]
Percentage of motility inhibition 0 h [1]: 0% | Percentage of motility inhibition 24 h [2]: 4%

CO/N=C(\C(=O)N[C@@H]1C(=O)N2C(C(=O)[O-])=C(CSC(=O)c3ccco3)CS[C@H]12)c1csc(N)n1.[Na+] [Ceftiofur (sodium)]
Percentage of motility inhibition 0 h [1]: 17% | Percentage of motility inhibition 24 h [2]: 1%

CC(C)=CCc1c(O)ccc(C(=O)[C@@H]2[C@@H](c3c(O)cc(O)c4c(=O)c(CC=C(C)C)c(-c5ccc(O)cc5O)oc34)C=C(C)C[C@H]2c2ccc(O)cc2O)c1O [Kuwanon H]
Percentage of motility inhibition 0 h [1]: 11% | Percentage of motility inhibition 24 h [2]: 23%

COC(=O)C1=COC(O[C@@H]2O[C@H](CO)[C@@H](O)[C@H](O)[C@H]2O)/C(=C/C(=O)O)C1CC(=O)OCCc1ccc(O)cc1 (stereo partly drawn) [Ligustrosidic acid]
Percentage of motility inhibition 0 h [1]: 3% | Percentage of motility inhibition 24 h [2]: 24%

CSC(=O)OCC1=C[C@H](O)[C@H]2C(C(=O)O)=CO[C@@H](O[C@@H]3O[C@@H](CO)[C@@H](O)[C@@H](O)[C@H]3O)[C@H]12 [Paederosidic acid]
Percentage of motility inhibition 0 h [1]: 0% | Percentage of motility inhibition 24 h [2]: 0%

CC(C)=CCC[C@](C)(O)[C@@H]1CC=C(C)CC1 [alpha-Bisabolol]
Percentage of motility inhibition 0 h [1]: 1% | Percentage of motility inhibition 24 h [2]: 6%

COc1c(/C=C/C(=O)c2ccc(O)cc2)ccc(O)c1CC=C(C)C [Licochal cone C]
Percentage of motility inhibition 0 h [1]: 0% | Percentage of motility inhibition 24 h [2]: 8%

COc1ccc([C@@H]2CC(=O)c3c(O)cc(O[C@@H]4O[C@H](CO)[C@@H](O)[C@H](O)[C@H]4O)cc3O2)cc1 [Isosakuranin]
Percentage of motility inhibition 0 h [1]: 1% | Percentage of motility inhibition 24 h [2]: 2%

CS(=O)(=O)O.Cc1c(O)cccc1C(=O)N[C@@H](CSc1ccccc1)[C@H](O)CN1C[C@H]2CCCC[C@H]2C[C@H]1C(=O)NC(C)(C)C [Nelfinavir (Mesylate)]
Percentage of motility inhibition 0 h [1]: 47% | Percentage of motility inhibition 24 h [2]: 5%

CC(C)=CCC[C@](C)(O)[C@H]1CC[C@]2(C)[C@@H]1[C@H](O)C[C@@H]1[C@@]3(C)C[C@@H](O)[C@H](O[C@@H]4O[C@H](CO)[C@@H](O)[C@H](O)[C@H]4O[C@@H]4O[C@H](CO)[C@@H](O)[C@H](O)[C@H]4O)C(C)(C)[C@@H]3CC[C@]12C [Gypenoside L]
Percentage of motility inhibition 0 h [1]: 22% | Percentage of motility inhibition 24 h [2]: 15%

CN1[C@@H]2CC[C@H]1CC(OC(=O)[C@H](CO)c1ccccc1)C2.CN1[C@@H]2CC[C@H]1CC(OC(=O)[C@H](CO)c1ccccc1)C2.O=S(=O)(O)O (stereo partly drawn) [L‐Hyoscyamine (sulfate)]
Percentage of motility inhibition 0 h [1]: 18% | Percentage of motility inhibition 24 h [2]: 9%

CCCCC1OC(=O)c2ccccc21 (stereo not drawn) [Butylphthalide]
Percentage of motility inhibition 0 h [1]: 0% | Percentage of motility inhibition 24 h [2]: 18%

CC1(C)[C@@H](O)CC[C@]2(C)[C@H]3CC=C4[C@@H]5C[C@@]6(C)C[C@H](OC6=O)[C@]5(C)CC[C@@]4(C)[C@]3(C)CC[C@@H]12 [Wilforlide A]
Percentage of motility inhibition 0 h [1]: 7% | Percentage of motility inhibition 24 h [2]: 3%

O=c1ccoc2cc(O)ccc12 [7‐Hydroxy‐4H‐chromen‐4‐one]
Percentage of motility inhibition 0 h [1]: 0% | Percentage of motility inhibition 24 h [2]: 8%

C=C(CC[C@@H](C(=O)O)[C@H]1CC[C@@]2(C)C3=CC[C@H]4C(C)(C)[C@@H](OC(C)=O)CC[C@]4(C)C3=CC[C@]12C)C(C)C [Dehydroeburicoic acid monoacetate]
Percentage of motility inhibition 0 h [1]: 20% | Percentage of motility inhibition 24 h [2]: 24%

O=C1C=C2C=C[C@@H]3C[C@@]2(O1)[C@@H]1CCCCN31 [Allosecurinine]
Percentage of motility inhibition 0 h [1]: 23% | Percentage of motility inhibition 24 h [2]: 29%

COc1cc(/C=C/C(=O)OCC[N+](C)(C)C)cc(OC)c1O [Sinapine]
Percentage of motility inhibition 0 h (110 µM): 0% | Percentage of motility inhibition 24 h (110 µM): 1%

CC1(C)CC[C@]2(C(=O)O[C@@H]3O[C@H](CO[C@@H]4O[C@H](CO)[C@@H](O)[C@H](O)[C@H]4O)[C@@H](O)[C@H](O)[C@H]3O)CC[C@]3(C)C(=CC[C@@H]4[C@@]5(C)CC[C@H](O[C@@H]6OC[C@H](O)[C@H](O)[C@H]6O)[C@@](C)(CO)[C@@H]5CC[C@]43C)[C@@H]2C1 [Asperosaponin VI]
Percentage of motility inhibition 0 h [1]: 0% | Percentage of motility inhibition 24 h [2]: 2%

CC1(C)CC[C@]2(C(=O)O[C@@H]3O[C@H](CO)[C@@H](O)[C@H](O)[C@H]3O)CC[C@]3(C)C(=CC[C@@H]4[C@@]5(C)C[C@@H](O)[C@H](O[C@@H]6O[C@H](CO)[C@@H](O)[C@H](O)[C@H]6O)[C@@](C)(CO)[C@@H]5CC[C@]43C)[C@@H]2C1 [Lucyoside B]
Percentage of motility inhibition 0 h [1]: 9% | Percentage of motility inhibition 24 h [2]: 4%

COc1cc2c(=O)c(-c3ccc(O)cc3)coc2cc1O[C@@H]1O[C@H](COC(C)=O)[C@@H](O)[C@H](O)[C@H]1O [6''‐O‐Acetylglycitin]
Percentage of motility inhibition 0 h [1]: 4% | Percentage of motility inhibition 24 h [2]: 5%

CC[C@@]1(O)C(=O)OCc2c1cc1n(c2=O)Cc2cc3c(OC)cccc3nc2-1 [9‐Methoxycamptothecin]
Percentage of motility inhibition 0 h [1]: 22% | Percentage of motility inhibition 24 h [2]: 0%

(-)-Huperzine A
Percentage of motility inhibition 24 h [2]: 7% and 15%

Oc1cc(O)c2c(c1)OC1(c3ccc(O)c(O)c3)Oc3cc(O)c4c(c3C2C1O)OC(c1ccc(O)c(O)c1)C(O)C4 (stereo not drawn) [Procyanidin A1]
Percentage of motility inhibition 0 h [1]: 23% | Percentage of motility inhibition 24 h [2]: 12%

CC(C)OC(=O)OCOP(=O)(CO[C@H](C)Cn1cnc2c(N)ncnc21)OCOC(=O)OC(C)C.O=C(O)/C=C/C(=O)O [Tenofovir (Disoproxil Fumarate)]
Percentage of motility inhibition 0 h [1]: 5% | Percentage of motility inhibition 24 h [2]: 1%

O=C(O)C1=CO[C@@H](O[C@@H]2O[C@H](CO)[C@@H](O)[C@H](O)[C@H]2O)[C@@H]2C(CO)=C[C@H](O)[C@H]12 [Deacetylasperulosidic Acid]
Percentage of motility inhibition 0 h [1]: 0% | Percentage of motility inhibition 24 h [2]: 8%

CN1[C@@H]2CC[C@H]1CC(OC(=O)[C@H](CO)c1ccccc1)C2.CN1[C@@H]2CC[C@H]1CC(OC(=O)[C@H](CO)c1ccccc1)C2.O=S(=O)(O)O (stereo partly drawn) [L-Hyoscyamine (sulfate)]
Percentage of motility inhibition 0 h [1]: 1% | Percentage of motility inhibition 24 h [2]: 6%

COc1cc2c[n+](C)c3c4cc5c(cc4ccc3c2cc1OC)OCO5.[Cl-] [Nitidine (chloride)]
Percentage of motility inhibition 0 h [1]: 0% | Percentage of motility inhibition 24 h [2]: 7%

Eprinomectin [reference compound]
Inhibition (%) 110 μM (0 h): 91 ± 3% | Inhibition (%) 110 μM (24 h): 92 ± 3% | Percentage of motility inhibition 0 h [1]: 96% | Percentage of motility inhibition 24 h [2]: 86%

C[C@@H]1O[C@@H](O[C@H]2[C@H](O[C@H]3CC[C@@]4(C)[C@@H](CC[C@]5(C)[C@@H]4CC=C4[C@@H]6CC(C)(C)CC[C@]6(C(=O)O[C@@H]6O[C@H](CO[C@@H]7O[C@H](CO)[C@@H](O)[C@H](O)[C@H]7O)[C@@H](O)[C@H](O)[C@H]6O)CC[C@]45C)[C@]3(C)CO)OC[C@H](O)[C@@H]2O)[C@H](O)[C@H](O[C@@H]2O[C@H](CO)[C@@H](O)[C@H](O)[C@H]2O)[C@H]1O [Macranthoidin A]
Percentage of motility inhibition 0 h [1]: 1% | Percentage of motility inhibition 24 h [2]: 1%

O=C(N[C@@H](Cc1ccccc1)C(=O)N[C@H](CO)Cc1ccccc1)c1ccccc1 [Aurantiamide]
Percentage of motility inhibition 0 h [1]: 0% | Percentage of motility inhibition 24 h [2]: 15%
